# According to patent US9993426B2, “Bisacodyl compositions and delivery apparatus” (C.B. FLEET COMPANY INCORPORATED, priority 2015, dated 2018):
# Tests used:
# [1] = Water solubility (qualitative statement); type: physicochemical
# Text: Ready-to-use bisacodyl preparations have a short shelf-life (i.e., less than 18 months), can experience settling, and result in waste (e.g., a significant portion of the drug remains in the package). There is a need in the art for a ready-to-use bisacodyl preparation with a longer shelf life and less wasteful apparatus for delivery into the colon.
# [2] = cited from earlier work
# [3] = Text: The molecular formula for bisacodyl is (C22H19NO4), and the molecular weight is 361.39 gram/mole.
smiles,measurement,setting,value
"CC(=O)Oc1ccc(C(c2ccc(OC(C)=O)cc2)c2ccccn2)cc1 [Bisacodyl, 4,4′-(pyridin-2-ylmethylene)bis(4,1-phenylene) diacetate]",water solubility,[1],poor water solubility
same,time to have an effect,"[2]; administered orally, 5-10 milligrams",6 to 12 h
same,time in which usually effective,"[2]; administered rectally in suppository form, 10 mg",15 to 60 min
same,aqueous molar solubility,[3],3.4 µM
Oc1ccc(C(c2ccc(O)cc2)c2ccccn2)cc1 [desacetyl bisacodyl],water solubility,[1],poor water solubility
